A short description of series [1]: Relative reaction rate with N-Ac-cysteine (LC/MS). The class given is physicochemical. The settings on record: with N-acetyl-L-cysteine in PBS buffer/DMSO, 1 hour, room temperature; relative to Reference A = 1. As for the experimental part: To a homogeneous solutions of ‘reference A’, PyrMPS-1, and mMPS-4 (10 stock solution 10 mmol) in PBS buffer (870 μL) and DMSO (90 μL) was added N-acetyl-L-cysteine (10 stock solution 10 mmol) and stirred for 1 hour at room temperature. The resulting samples were checked for reaction rate using LC/MS.

A short description of series [2]: Plasma stability in human plasma, HPLC. The class given is in vitro ADME. Particulars: 300 μM, 37° C., up to 7 days. As for the experimental part:
(§1) Compound N-Ac-Cys-AMA-10 and methyl phenyl sulfone (used as a standard material) were dissolved in DMSO to make a concentration of 30 mM. Then, each of human plasma (Biochemed 752PR—SC-PMG) and mouse plasma (Biochemed 029-APSC-MP) were mixed with the N-Ac-Cys-AMA-10 and MPS to make a final concentration of N-Ac-Cys-AMA-10 and methyl phenyl sulfone 300 μM. The resulting plasma mixtures were incubated in a water bath at 37° C. Aliquots were taken before the reaction and on 1 day, 2 days, 4 days, and 7 days after the reaction, wherein each aliquot was 200 μL. To complete the reaction, a two-fold volume of acetonitrile was added, followed by brief vortexing, and centrifugation for plasma protein precipitation. Each supernatant obtained after centrifugation was collected and analyzed by HPLC.

A short description of series [3]: Plasma stability in mouse plasma, HPLC. The settings on record: 300 μM, 37° C., up to 7 days. The class given is in vitro ADME. As for the experimental part:
as §1

Here are results for four molecules from patent publication US20230039858A1, “COMPOSITIONS AND METHODS RELATED TO MOLECULAR CONJUGATION” (IntoCell, Inc., priority 2019, published 2023).

For the molecule `COC(=O)c1cc(C(=O)CCS(=O)(=O)c2ccc(C)cc2)cc(C(=O)NCCOCCOCCOCCOCCOCCN=[N+]=[N-])c1` [mMPS-4], the Relative reaction rate result in series [1] is “Increase 7 folds”. Turning to `C#CCOCCOCCOCCNC(=O)c1cc(C(=O)CC(SC[C@H](NC(C)=O)C(=O)O)C(N)=O)cc(C(=O)NCCOCCOCCOCC#C)c1` (some centres unmarked) [N-Ac-Cys-AMA-10], the “stability in human plasma” value in series [2] is “high stability”. The “stability in mouse plasma” value in series [3] was “high stability”. As to `Cc1ccc(S(=O)(=O)CCC(=O)c2cncc(C(=O)NCCOCCOCCOCCOCCOCCN=[N+]=[N-])c2)cc1` [pyrMSP-1], in series [1], the Relative reaction rate result is “Increase 11.5 folds”. For the molecule `Cc1ccc(S(=O)(=O)CCC(=O)c2ccc(C(=O)NCCOCCOCCOCCOCCOCCN=[N+]=[N-])cc2)cc1` [Reference A, reference compound], the Relative reaction rate in series [1] is on record as 1 folds.
